Legend:
K-RasG12V = K-RasG12V nanoclustering-BRET assay in HEK293-EBNA cells; type: cell-based
Description: (§1) BRET assays were essentially performed as described by others ([Lavoie et al., 2013]; [Bery et al., 2018]). About 100,00–150,000 HEK293-EBNA ([Meissner et al., 2001]) cells were seeded per well of a 12-well plate in 1 ml of DMEM containing 10% FBS and 2 mM L-glutamine and were grown for 24 h. Next day, Rluc8-tagged donor and GFP2-tagged acceptor constructs were transfected into cells using a jetPRIME transfection reagent (cat. no. 114-75, Polyplus). Each well was transfected with about 1 μg of plasmid DNA using 3 μl of the jetPRIME reagent. For BRET donor saturation titration experiments, the concentration of donor plasmid (25 ng) was kept constant, and the concentration of acceptor plasmid was increased from 0 to 500 ng for RasG12V BRET pairs and 0–1,000 ng for K-Ras/CaM BRET pairs. The empty pcDNA3.1(-) plasmid was used to top-up the total DNA load per transfection. After 24 h of transfection, cells were treated with compounds or vehicle control (DMSO 0.2% v/v in a growth medium) at the specified concentration for 24 h or the stipulated time period in case of the time-course experiments. The cells from one well of a 12-well plate were collected, washed, and re-plated in PBS (cat. no. 14190-094, Gibco, Thermo Fisher Scientific) on flat bottom, white 96-well plates (cat. no. 236108, Nunc, Thermo Fisher Scientific) as four technical replicates containing 90 μl of cell suspension per well. Then fluorescence intensity followed by BRET readings were carried out on a Clariostar (BMG Labtech) plate reader at 25°C. The fluorescence intensity (RFU) of GFP2 was measured with excitation at 405 ± 10 nm and emission 515 ± 10 nm; it is proportional to the acceptor concentration [acceptor]. BRET readings were taken well by well by adding 10 μl of 100 μM coelenterazine 400a (cat. no. C-320, GoldBio), the Rluc8 substrate to each well (final concentration of 10 μM) using the injector present in the plate reader. Luminescence emission intensities were simultaneously recorded at 410 ± 40 nm (RLU, proportional to [donor]) and 515 ± 15 nm (BRET signal).
(§2) The raw BRET ratio was calculated as the BRET signal measured at 515 nm divided by the emission signal measured at 410 nm (RLU). The BRET ratio was obtained by subtracting the raw BRET ratio by a background BRET signal measured for cells expressing only the donor ([Bacart et al., 2008]) as indicated in the formula below:
(§3) For BRET donor saturation titration experiments, the BRET ratio was plotted against the [acceptor]/[donor] ratio. Technical repeat data points were averaged, and data points from all biological repeats were collected into one graph for subsequent fitting. The BRET ratio vs. relative expression data were fitted using a binding saturation equation in the Prism (GraphPad) software to obtain BRETmax and BRET50 using the equation y=BRETmax×x/BRET50+x , where x is the relative expression and y is the BRET ratio. BRETmax represents the maximum saturation BRET signal and depends on the structural parameters (distance, orientation) of the BRET complex. BRET50 corresponds to the ratio of the acceptor construct over the donor construct required to attain 50% of the maximum BRET signal and is a measure of the effective relative affinity between the interacting BRET pair ([Marullo and Bouvier, 2007]).
When applying the DSS analysis to nanoclustering-BRET data, we used mevastatin (10 μM) to obtain the asymptote parameter (a) for the maximal inhibition effect, as it prevents the prenylation of Ras proteins, their plasma membrane trafficking, and therefore nanoclustering. Otherwise, normalized BRET ratio data were converted to % inhibition and then subsequently uploaded onto the Breeze site (see text footnote 1).

K-RasG12V/CaM = target: T1, K-RasG12V/CaM (Homo sapiens, UniProt P0DP23); experiment: Rluc8-K-RasG12V/GFP2-CaM interaction BRET in HEK293-EBNA cells; type: cell-based; settings: for IC50: 24-h exposure, A/D plasmid ratio 9/1, read-out: IC50 of Rluc8-K-RasG12V/GFP2-CaM BRET signal
T1 construct: expressed in transfected cells; host or cells: HEK293-EBNA
Description: as §1, §2, §3

[1] = target: T2, mutCaM (CaM with K75Q, K77Q, and K148Q mutations) (Homo sapiens, UniProt P0DP23, K76Q/K78Q); experiment: Fluorescence polarization assay with F-CaMKII peptide and His-mutCaM; type: binding; settings: 50 nM His-mutCaM, 5 nM F-CaMKII, compared to wt CaM
T2 construct: made in house; host or cells: E. coli BL21 Star (DE3)pLysS
Description: Our numbering of CaM follows ([Kong Au and Chow Leung, 1998]) with Ala being the first amino acid in human CaM, as the N-terminal methionine of CaM is removed in most organisms ([Halling et al., 2016]). […] At A600 of 0.6–0.8, the culture was induced with 0.5 mM of isopropyl β-D-thiogalactopyranoside and expressed for 16 h at 25°C. Cells were collected by centrifugation and incubated on ice for 30 min. The cell suspension was sonicated in a lysis buffer (20 mM HEPES, pH 7.6, 150 mM NaCl, 5 mM MgCl2, 0.5 mg/ml lysozyme, and DNase I). The lysates were clarified by centrifugation at 18,000 g for 30 min at 4°C. The soluble fractions were subjected to protein purification.

Row | SMILES | reduction in the K-RasG12V BRET signal (K-RasG12V; 1 at 50 μM, within 10 min of treatment) [%] | higher effectivity than calmidazolium in cell biological experiments (K-RasG12V; Calmirasone1 used at 2.5-fold higher concentration, Figures 3F, 7B) [fold] | IC50 (K-RasG12V/CaM) [µM] | binding to mutCaM over time [1] | time-dependent change of K-RasG12V nanoclustering-BRET signal (K-RasG12V; 2-h treatment timeframe, OphA 10 μM, mevastatin 10 μM) | K-Ras selective reduction of nanoclustering-BRET (K-Ras vs H-Ras) (K-RasG12V; 24 h, calmidazolium 20 μM, OphA 2.5 μM, prostratin 10 μM, mevastatin 10 μM, benzazulenones 20 μM) [fold] | effect on Rluc8-K-RasG12V/GFP2-CaM BRET signal, single concentration (K-RasG12V/CaM; calmidazolium 20 μM, prostratin 20 μM, OphA 5 μM)
1 | CC(C)c1ccc2cc(C(F)(F)F)c(=O)c3c(N4CCCCC4)c(C=O)c(c1)c23 [Compound 1] | 38 | > 25 | 31 ± 2 | displayed binding to mutCaM |  |  | 
2 | CC(C)=C[C@H]1C[C@H](C)[C@]2(CC[C@]3(C)C[C@H]4[C@H](C(=O)C[C@@]4(C)O)/C(C=O)=C\C[C@H]32)O1 [OphA, Ophiobolin A, reference compound] |  |  | 12 ± 2 | no binding was observed to mutCaM | no significant BRET change | 1.2 | significantly reduced the BRET signal
